Laboratory results from US10323020B2, “Substituted piperidinyl tetrahydroquinolines” (Bayer Pharma Aktiengesellschaft, priority 2013, dated 2019).

Experiments:
[1] = target: recombinant human α2C receptor (Homo sapiens (Human), UniProt P18825); assay: Antagonism against the adrenoreceptor α2C (luminescence, noradrenaline-stimulated CHO cells); format: cell-based; settings: noradrenaline 20 nM; CHO cell line with Gαqi3 and mtOb
Procedure: Antagonism against the adrenoreceptor α1A was tested using a recombinant human α1A receptor CHO cell line which additionally also recombinantly expresses mtAeq (mitochondrial aequorin). Antagonism against the adrenoreceptor α2A was tested using a recombinant human α2A-Gα16 receptor fusion protein CHO cell line (PerkinElmer Life Sciences) which additionally also recombinantly expresses mtAeq. Antagonism against the adrenoreceptor α2B was tested using a recombinant human α2B receptor CHO cell line (PerkinElmer Life Sciences) which additionally also recombinantly expresses mtAeq. Antagonism against the adrenoreceptor α2C was tested using a recombinant human α2C receptor CHO cell line which additionally also recombinantly expresses a chimaric G protein (Gαqi3) and mtOb (mitochondrial obelin).
The cells were cultivated at 37° C. and 5% CO2 in Dulbecco's modified Eagle's Medium/NUT mix F12 with L-glutamine which additionally contains 10% (v/v) inactivated foetal calf serum, 1 mM sodium pyruvate, 0.9 mM sodium bicarbonate, 50 U/ml penicillin, 50 μg/ml streptomycin, 2.5 μg/ml amphotericin B and 1 mg/ml Geneticin. The cells were passaged with enzyme-free Hank's-based cell dissociation buffer. All cell culture reagents used were from Invitrogen (Carlsbad, USA).
Luminescence measurements were carried out on white 384-well microtitre plates. 2000 cells/well were plated in a volume of 25 μl and cultivated for one day at 30° C. and 5% CO2 in cell culture medium with coelenterazine (α2A and α2B: 5 μg/ml; α1a/c and α2C: 2.5 μg/ml). Serial dilutions of the test substances (10 μl) were added to the cells. After 5 minutes, noradrenaline was added to the cells (35 μl; final concentrations: 20 nM (α1a/c and α2C) or 200 nM (α2A and α2B)), and the emitted light was measured for 50 seconds using a CCD (charge-coupled device) camera (Hamamatsu Corporation, Shizuoka, Japan) in a light-tight box. The test substances were tested up to a maximum concentration of 10 μM. The IC50 values were calculated from the appropriate dose-response curves.

[2] = test system: diabetic ZDF fa/fa animals; assay: Measurement of blood flow and blood pressure in rats (femoral flow), ZDF rat; format: in vivo; settings: for Change in the femoral flow in %: ZDF rat (n = 3), steady state 32 min, mean
Procedure: (§1) Wistar rats (Hsd Cpb:Wu) of a weight of 250-350 g or ZDF rats (ZDF/Crl-Lepr fa/fa) of a weight of 330-520 g were anesthetized using 2.5% isoflurane in an oxygen/laughing gas mixture (40:60). To determine the blood flow in the carotid artery and the femoral artery, the anesthetized rat was brought into a supine position, and the left carotid artery and the right femoral artery are then carefully exposed. Blood flow was measured by placing flow probes (Transonic Flowprobe) at the vessels. By introducing a PE50 artery catheter into the left femoral artery, blood pressure and heart rate were determined (Transducer Ref. 5203660: from Braun CH). The substances were administered as a bole injection or a continuous infusion via a venous catheter in the left femoral vein.
(§2) Following the preparation of the animals, there was a 5 min baseline interval. Infusion of the AR alpha2C receptor antagonist was then started. In the steady state (32 min after the start of the experiment), the femoral flow was determined in relation (% difference) to the initial flow.
(§3) At the same time, no changes in blood pressure and heart rate were measured. Placebo: 10% ethanol/40% PEG400/50% NaCl.

[3] = test system: diabetic (ZDFfa/fa) and healthy rats (Wistar); assay: Assay of perfusion-enhancing substances (microcirculation), laser doppler at the paw; format: in vivo, rat
Source text: In diabetic (ZDFfa/fa) and healthy rats (Wistar), a laser doppler probe was fastened under anaesthesia conditions (isoflurane anaesthesia) at the sole of the paw for measuring cutaneous microcirculation. The test animals were once treated orally with the test substances. During the experiment, microperfusion and temperature of the lower extremities were documented continuously. Here, a temperature-sensitive laser doppler probe (Periflux, O2C) was fastened with adhesive to the paws of the animals, allowing the measurement of microperfusion and skin temperature. The microcirculation measurement values were measured on both paws 30 min after oral administration of the test substance. […] Also stated is the MED for the significant increase of skin temperature (ttest).
Microcirculation data for adrenoreceptor α2C receptor antagonist of the compound of Example 8 and for the comparative substance ORM12741, an AR α2c receptor antagonist from Orion, are shown in Table 3: […]

[4] = test system: conscious female Wistar rats; assay: Radiotelemetric measurement of blood pressure and heart rate of conscious rats; format: in vivo, rat
Source text: A commercially available telemetry system from Data Sciences International DSI, USA, was employed for the measurements on conscious rats described below. The system consists of 3 main components: (1) implantable transmitters (Physiotel® telemetry transmitter), (2) receivers (Physiotel® receiver), which are linked via a multiplexer (DSI Data Exchange Matrix) to a (3) data acquisition computer. The telemetry system makes it possible to continuously record blood pressure, heart rate and body motion of conscious animals in their usual habitat.
The studies were conducted on adult female Wistar rats with a body weight of >200 g. After transmitter implantation, the experimental animals were housed singly in type III Makrolon® cages. They had free access to standard feed and water. The day/night rhythm in the test laboratory was set by changing the illumination of the room.
The telemetry transmitters used (PA-C40, DSI) were surgically implanted under aseptic conditions in the experimental animals at least 14 days before the first experimental use.
For the implantation, the fasted animals were anaesthetized with isoflurane (IsoFlo®, Abbott, initiation 5%, maintenance 2%) and shaved and disinfected over a large area of their abdomens. […]
Each of the instrumented rats living in the system was assigned a separate receiving antenna (RPC-1 Receiver, DSI). […] The signals emitted were detected online by a data acquisition system (Dataquest™ A.R.T. for Windows, DSI) and processed accordingly.
In the standard procedure, the following were measured for 10-second periods in each case: (1) systolic blood pressure (SBP), (2) diastolic blood pressure (DBP), (3) mean arterial pressure (MAP) and (4) heart rate (HR) and (5) activity (ACT). These parameters were measured over 24 hours after administration.
The acquisition of measurements was repeated under computer control at 5-minute intervals. The source data obtained as absolute values were corrected in the diagram with the currently measured barometric pressure (Ambient Pressure Reference Monitor, APR-1, DSI). […]

Wistar rat = assay: Measurement of blood flow and blood pressure in rats (femoral flow), Wistar rat; format: in vivo
Procedure: as §1, §2, §3

[5] = during infusion, up to 1 μg/kg/min

Chain of recombinant human α2C receptor (P18825 whole entry, the tested form may be a part): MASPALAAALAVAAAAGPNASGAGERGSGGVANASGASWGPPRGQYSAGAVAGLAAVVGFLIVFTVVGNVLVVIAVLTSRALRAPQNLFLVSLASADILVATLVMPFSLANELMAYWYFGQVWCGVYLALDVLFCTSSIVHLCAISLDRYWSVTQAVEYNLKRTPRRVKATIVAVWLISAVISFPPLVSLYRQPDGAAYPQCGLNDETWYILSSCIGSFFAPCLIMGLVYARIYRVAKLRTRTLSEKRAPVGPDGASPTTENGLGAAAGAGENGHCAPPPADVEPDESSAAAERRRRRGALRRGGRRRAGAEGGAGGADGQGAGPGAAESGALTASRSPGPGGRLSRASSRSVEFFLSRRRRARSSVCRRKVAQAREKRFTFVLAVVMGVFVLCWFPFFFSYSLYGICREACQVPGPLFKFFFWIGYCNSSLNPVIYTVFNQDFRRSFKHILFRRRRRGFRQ

O=C(c1cnc(N2CC3(COC3)C2)nc1)N1CCC(N2CCc3ccccc3C2)CC1 [Example 8, [4-(3,4-Dihydroisoquinolin-2(1H)-yl)piperidin-1-yl][2-(2-oxa-6-azaspiro[3.3]hept-6-yl)pyrimidin-5-yl]methanone]
IC50 [1]: 23 nM
Change in the femoral flow in % ([2]; 0.1 μg/kg/min infusion): 12.3%
Change in the femoral flow in % ([2]; 0.3 μg/kg/min infusion): 65.0%
Change in the femoral flow in % ([2]; 1 μg/kg/min infusion): 131.3%
femoral flow (in words) ([2]; diabetic ZDF fa/fa animals, doses of 0.1, 0.3 and 1 μg/kg): dose-dependent increase in femoral flow
factor by which microcirculation is improved at the MED compared to placebo ([3]; single oral dose at MED, 30 min after administration): 1.8 x
MED microcirculation ([3]; single oral dose, measured 30 min after administration, significant vs placebo): 0.03 mg/kg
MED skin temperature ([3]; single oral dose, significant increase of skin temperature (ttest)): 0.01 mg/kg
heart rate ([4]; oral 3 and 10 mg/kg): slight transient increase in the heart rate
haemodynamic effects (blood pressure, heart rate) ([4]; up to an oral dose of 1 mg/kg): no haemodynamic effects
Change in the femoral flow in % (Wistar rat; Wistar rat (n = 7), 1 μg/kg/min infusion, steady state 32 min, mean): −6.7 (n = 7) %
femoral flow (in words) (Wistar rat; Wistar rat, up to a dose of 1 μg/kg/min): no increase in femoral flow
blood pressure (in words) (Wistar rat; [5]): no changes
heart rate (in words) (Wistar rat; [5]): no changes
